Experimental data reported in publication PMC4890880 (ACS infectious diseases, 2016).

Test system: Plasmodium berghei (Pb-Luc) exoerythrocytic-stage parasites
Assay: microbe, parasite or virus in culture
Details: read-out: Inhibition% @ 50 uM rep1

SMILES	inhibition at 50 µM [%]
CCN1CCN(c2c(C(=O)c3ccccc3)cnc3cc(OC)c(OC)cc23)CC1 [MMV008474]	102
CCOc1cc2c(cc1OCC)C(c1cc(OC)c(O)cc1Cl)NCC2 (stereo not shown) [MMV008956]	101
CCN(CC)c1ccc(NC(=O)c2cccs2)cc1 [MMV009060]	101
CC(C)(C)c1ccc(C2CC3=Nc4ccccc4N(C(=O)c4ccccc4Cl)C(c4ccc(F)cc4)C3=C(O)C2)cc1 (stereo not shown) [MMV011436]	93
Cc1cc(NC(=O)c2ccc(-c3ccccc3)cc2)no1 [MMV018984]	101
COc1ccc(N2CCN(C(CNC(=O)C3CCCCC3)c3ccc4c(c3)OCO4)CC2)cc1 (stereo not shown) [MMV019662]	89

Same assay, conditions: read-out: Inhibition% @ 50 uM rep2

SMILES	inhibition at 50 µM [%]
CCN1CCN(c2c(C(=O)c3ccccc3)cnc3cc(OC)c(OC)cc23)CC1 [MMV008474]	103
CCOc1cc2c(cc1OCC)C(c1cc(OC)c(O)cc1Cl)NCC2 (stereo not shown) [MMV008956]	100
CCN(CC)c1ccc(NC(=O)c2cccs2)cc1 [MMV009060]	102
CC(C)(C)c1ccc(C2CC3=Nc4ccccc4N(C(=O)c4ccccc4Cl)C(c4ccc(F)cc4)C3=C(O)C2)cc1 (stereo not shown) [MMV011436]	94
Cc1cc(NC(=O)c2ccc(-c3ccccc3)cc2)no1 [MMV018984]	100
COc1ccc(N2CCN(C(CNC(=O)C3CCCCC3)c3ccc4c(c3)OCO4)CC2)cc1 (stereo not shown) [MMV019662]	94

Same assay, conditions: read-out: PbLuc IC50, dose response, 1/3 dilutions, max conc. 10 or 50 uM, unit inferred

SMILES	IC50 [µM]
CCN1CCN(c2c(C(=O)c3ccccc3)cnc3cc(OC)c(OC)cc23)CC1 [MMV008474]	1.01
CCN(CC)c1ccc(NC(=O)c2cccs2)cc1 [MMV009060]	1.76
CC(C)(C)c1ccc(C2CC3=Nc4ccccc4N(C(=O)c4ccccc4Cl)C(c4ccc(F)cc4)C3=C(O)C2)cc1 (stereo not shown) [MMV011436]	2.39
Cc1cc(NC(=O)c2ccc(-c3ccccc3)cc2)no1 [MMV018984]	0.79

Same assay, conditions: read-out: PbLuc IC50, dose response, unit inferred

SMILES	IC50 [µM]
CCOc1cc2c(cc1OCC)C(c1cc(OC)c(O)cc1Cl)NCC2 (stereo not shown) [MMV008956]	> 10
COc1ccc(N2CCN(C(CNC(=O)C3CCCCC3)c3ccc4c(c3)OCO4)CC2)cc1 (stereo not shown) [MMV019662]	> 50

Same assay, conditions: read-out: PbLuc max inhibition (%) @ 10 uM

SMILES	inhibition at 10 µM [%]
CCOc1cc2c(cc1OCC)C(c1cc(OC)c(O)cc1Cl)NCC2 (stereo not shown) [MMV008956]	22
Cc1cc(NC(=O)c2ccc(-c3ccccc3)cc2)no1 [MMV018984]	101

Same assay, conditions: read-out: PbLuc max inhibition (%) @ 50 uM

SMILES	inhibition at 50 µM [%]
CCN1CCN(c2c(C(=O)c3ccccc3)cnc3cc(OC)c(OC)cc23)CC1 [MMV008474]	106
CCN(CC)c1ccc(NC(=O)c2cccs2)cc1 [MMV009060]	104
CC(C)(C)c1ccc(C2CC3=Nc4ccccc4N(C(=O)c4ccccc4Cl)C(c4ccc(F)cc4)C3=C(O)C2)cc1 (stereo not shown) [MMV011436]	99
COc1ccc(N2CCN(C(CNC(=O)C3CCCCC3)c3ccc4c(c3)OCO4)CC2)cc1 (stereo not shown) [MMV019662]	49

Target: QuantiLum Recombinant Luciferase (Photinus pyralis, UniProt P08659)
Sequence (P08659 whole entry): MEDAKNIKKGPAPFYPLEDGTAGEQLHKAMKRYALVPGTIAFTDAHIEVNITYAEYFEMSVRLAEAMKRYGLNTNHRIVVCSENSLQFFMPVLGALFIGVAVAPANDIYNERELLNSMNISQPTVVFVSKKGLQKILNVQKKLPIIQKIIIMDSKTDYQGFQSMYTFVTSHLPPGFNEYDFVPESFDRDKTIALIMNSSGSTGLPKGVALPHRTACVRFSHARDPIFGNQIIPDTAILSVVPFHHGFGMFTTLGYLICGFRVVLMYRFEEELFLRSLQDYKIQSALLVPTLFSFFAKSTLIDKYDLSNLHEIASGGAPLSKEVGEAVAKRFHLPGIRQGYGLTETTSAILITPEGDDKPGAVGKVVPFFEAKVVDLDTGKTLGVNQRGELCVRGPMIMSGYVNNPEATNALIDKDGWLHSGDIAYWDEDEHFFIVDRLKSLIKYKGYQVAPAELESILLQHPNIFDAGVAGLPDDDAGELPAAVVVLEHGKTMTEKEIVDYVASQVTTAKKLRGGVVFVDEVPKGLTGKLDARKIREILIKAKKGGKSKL
Assay: Bioluminescence quantification of compound luciferase inhibition
Details: not given

SMILES	IC50 [µM]
CCN1CCN(c2c(C(=O)c3ccccc3)cnc3cc(OC)c(OC)cc23)CC1 [MMV008474]	> 50
CCOc1cc2c(cc1OCC)C(c1cc(OC)c(O)cc1Cl)NCC2 (stereo not shown) [MMV008956]	> 20
CCN(CC)c1ccc(NC(=O)c2cccs2)cc1 [MMV009060]	33.1
CC(C)(C)c1ccc(C2CC3=Nc4ccccc4N(C(=O)c4ccccc4Cl)C(c4ccc(F)cc4)C3=C(O)C2)cc1 (stereo not shown) [MMV011436]	> 50
Cc1cc(NC(=O)c2ccc(-c3ccccc3)cc2)no1 [MMV018984]	> 20
COc1ccc(N2CCN(C(CNC(=O)C3CCCCC3)c3ccc4c(c3)OCO4)CC2)cc1 (stereo not shown) [MMV019662]	> 50

Same assay, conditions: read-out: LucInhib max inhibition

SMILES	Emax [%]
CCN1CCN(c2c(C(=O)c3ccccc3)cnc3cc(OC)c(OC)cc23)CC1 [MMV008474]	22
CCOc1cc2c(cc1OCC)C(c1cc(OC)c(O)cc1Cl)NCC2 (stereo not shown) [MMV008956]	24
CCN(CC)c1ccc(NC(=O)c2cccs2)cc1 [MMV009060]	80
CC(C)(C)c1ccc(C2CC3=Nc4ccccc4N(C(=O)c4ccccc4Cl)C(c4ccc(F)cc4)C3=C(O)C2)cc1 (stereo not shown) [MMV011436]	20
Cc1cc(NC(=O)c2ccc(-c3ccccc3)cc2)no1 [MMV018984]	58
COc1ccc(N2CCN(C(CNC(=O)C3CCCCC3)c3ccc4c(c3)OCO4)CC2)cc1 (stereo not shown) [MMV019662]	38

Test system: HepG2-A16-CD81EGFP cells
Assay: cells
Details: Homo sapiens, HepG2, read-out: HepG2 Tox% @ 50 uM rep1

SMILES	cytotoxicity at 50 µM [%]
CCN1CCN(c2c(C(=O)c3ccccc3)cnc3cc(OC)c(OC)cc23)CC1 [MMV008474]	7
CCOc1cc2c(cc1OCC)C(c1cc(OC)c(O)cc1Cl)NCC2 (stereo not shown) [MMV008956]	-6.54
CCN(CC)c1ccc(NC(=O)c2cccs2)cc1 [MMV009060]	7
CC(C)(C)c1ccc(C2CC3=Nc4ccccc4N(C(=O)c4ccccc4Cl)C(c4ccc(F)cc4)C3=C(O)C2)cc1 (stereo not shown) [MMV011436]	1.44
Cc1cc(NC(=O)c2ccc(-c3ccccc3)cc2)no1 [MMV018984]	-22
COc1ccc(N2CCN(C(CNC(=O)C3CCCCC3)c3ccc4c(c3)OCO4)CC2)cc1 (stereo not shown) [MMV019662]	18

Same assay, conditions: Homo sapiens, HepG2, read-out: HepG2 Tox% @ 50 uM rep2

SMILES	cytotoxicity at 50 µM [%]
CCOc1cc2c(cc1OCC)C(c1cc(OC)c(O)cc1Cl)NCC2 (stereo not shown) [MMV008956]	-15
CCN(CC)c1ccc(NC(=O)c2cccs2)cc1 [MMV009060]	16
Cc1cc(NC(=O)c2ccc(-c3ccccc3)cc2)no1 [MMV018984]	-20
COc1ccc(N2CCN(C(CNC(=O)C3CCCCC3)c3ccc4c(c3)OCO4)CC2)cc1 (stereo not shown) [MMV019662]	28

Same assay, conditions: Homo sapiens, HepG2, read-out: Tox IC50

SMILES	IC50 [µM]
CCN1CCN(c2c(C(=O)c3ccccc3)cnc3cc(OC)c(OC)cc23)CC1 [MMV008474]	> 50
CCOc1cc2c(cc1OCC)C(c1cc(OC)c(O)cc1Cl)NCC2 (stereo not shown) [MMV008956]	> 10
CCN(CC)c1ccc(NC(=O)c2cccs2)cc1 [MMV009060]	> 50
CC(C)(C)c1ccc(C2CC3=Nc4ccccc4N(C(=O)c4ccccc4Cl)C(c4ccc(F)cc4)C3=C(O)C2)cc1 (stereo not shown) [MMV011436]	> 50
Cc1cc(NC(=O)c2ccc(-c3ccccc3)cc2)no1 [MMV018984]	> 10
COc1ccc(N2CCN(C(CNC(=O)C3CCCCC3)c3ccc4c(c3)OCO4)CC2)cc1 (stereo not shown) [MMV019662]	> 50

Same assay, conditions: Homo sapiens, HepG2, read-out: Tox max inhibition (%) @ 10 uM

SMILES	inhibition at 10 µM [%]
CCOc1cc2c(cc1OCC)C(c1cc(OC)c(O)cc1Cl)NCC2 (stereo not shown) [MMV008956]	9
Cc1cc(NC(=O)c2ccc(-c3ccccc3)cc2)no1 [MMV018984]	19

Same assay, conditions: Homo sapiens, HepG2, read-out: Tox max inhibition (%) @ 50 uM

SMILES	inhibition at 50 µM [%]
CCN1CCN(c2c(C(=O)c3ccccc3)cnc3cc(OC)c(OC)cc23)CC1 [MMV008474]	7
CCN(CC)c1ccc(NC(=O)c2cccs2)cc1 [MMV009060]	6
CC(C)(C)c1ccc(C2CC3=Nc4ccccc4N(C(=O)c4ccccc4Cl)C(c4ccc(F)cc4)C3=C(O)C2)cc1 (stereo not shown) [MMV011436]	19
COc1ccc(N2CCN(C(CNC(=O)C3CCCCC3)c3ccc4c(c3)OCO4)CC2)cc1 (stereo not shown) [MMV019662]	19
